# Test results from patent US20180015051A1, “MODULATORS OF ALPHA-DICARBONYL DETOXIFICATION AND THEIR USE FOR THE TREATMENT OF DIABETIC PATHOLOGIES” (Buck Institute for Research on Aging, priority 2016, published 2018).
# Molecular target: T1, TRPA1 (worm) (Caenorhabditis elegans, UniProt Q18297)
# T1 construct: expressed in transfected cells; host or cells: HEK293T
# T1 sequence (Q18297 1-1211): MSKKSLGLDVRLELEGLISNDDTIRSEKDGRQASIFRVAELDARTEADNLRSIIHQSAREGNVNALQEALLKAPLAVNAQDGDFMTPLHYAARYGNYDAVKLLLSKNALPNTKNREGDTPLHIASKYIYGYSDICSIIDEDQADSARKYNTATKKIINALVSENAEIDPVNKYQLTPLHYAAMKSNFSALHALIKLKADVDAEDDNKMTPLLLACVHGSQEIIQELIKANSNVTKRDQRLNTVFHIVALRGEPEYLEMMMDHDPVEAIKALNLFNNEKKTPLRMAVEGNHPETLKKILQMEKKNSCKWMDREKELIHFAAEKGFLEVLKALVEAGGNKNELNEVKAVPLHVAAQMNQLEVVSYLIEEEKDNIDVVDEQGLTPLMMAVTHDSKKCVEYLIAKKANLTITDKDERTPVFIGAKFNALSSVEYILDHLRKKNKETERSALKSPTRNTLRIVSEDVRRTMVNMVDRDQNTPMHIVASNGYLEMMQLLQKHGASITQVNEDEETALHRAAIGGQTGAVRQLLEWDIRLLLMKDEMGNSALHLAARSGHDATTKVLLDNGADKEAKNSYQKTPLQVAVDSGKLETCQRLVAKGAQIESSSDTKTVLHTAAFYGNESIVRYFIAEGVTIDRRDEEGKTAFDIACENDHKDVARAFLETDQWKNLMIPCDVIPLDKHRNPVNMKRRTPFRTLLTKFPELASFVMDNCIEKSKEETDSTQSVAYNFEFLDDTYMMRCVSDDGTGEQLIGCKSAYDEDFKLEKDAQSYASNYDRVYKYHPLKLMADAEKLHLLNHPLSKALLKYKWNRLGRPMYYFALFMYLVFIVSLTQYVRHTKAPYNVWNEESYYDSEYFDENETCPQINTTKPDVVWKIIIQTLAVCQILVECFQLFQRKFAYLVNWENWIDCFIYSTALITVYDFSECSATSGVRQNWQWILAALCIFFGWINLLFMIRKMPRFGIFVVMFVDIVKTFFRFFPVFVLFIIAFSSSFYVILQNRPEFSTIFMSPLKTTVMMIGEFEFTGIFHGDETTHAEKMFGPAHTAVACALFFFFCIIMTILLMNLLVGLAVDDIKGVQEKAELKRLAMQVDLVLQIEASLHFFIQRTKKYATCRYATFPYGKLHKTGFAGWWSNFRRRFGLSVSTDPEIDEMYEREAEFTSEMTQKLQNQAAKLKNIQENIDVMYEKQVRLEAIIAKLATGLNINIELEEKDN
# Assay: Calcium imaging of HEK293T cells (Rhod-3 AM), worm TRPA1
# Type: cell-based, C. elegans
# Conditions: HEK293T transfected with worm TRPA1 and GFP; 100 pM or 1 mM MGO
# Procedure: Appropriate HEK293T-derived cells were seeded on collagen-coated glass bottom culture dishes (MatTek Corporation). Cells were loaded with 10 pM of Rhod-3 AM (Life Technology) for 30 min at 37° C. After 30 min they were washed twice with standard Tyrode's solution (135 mM NaCl, 4 mM KCl, 10 mM glucose, 10 mM HEPES, 2 mM CaCl2, and 1 mM MgCl2 at pH=7.4) at room temperature. Calcium imaging was performed on an Olympus BX51WI Axiovert microscope under a 60× objective. Fluorescent images were documented upon sequential excitation with 555 nm followed by 484 nm with a Roper CoolSnap CCD camera. After establishing a baseline 555/484 ratio, methylglyoxal or other agonists were diluted with Tyrode's solution (100 pM or 1 mM final concentration) and were perfused into cells. Images were processed with the MetaFlour (Olympus) software.
smiles,measurement,value
"CC(=O)C=O [MGO, methylglyoxal]",Ca2+ flux (Rhod-3 AM fluorescence ratio 555/484 nm),induce a similar Ca^2+ flux
